Reference: article PMC5059758, “Structural characterization of antibiotic self-immunity tRNA synthetase in plant tumour biocontrol agent” (Nature Communications, 2016)

Legend:
[1] = system: LeuRSAt Triad (P45T/N105A/M633Q); test: Isothermal titration calorimetry, LeuRSAt Triad mutant; format: binding, A. tumefaciens; conditions: ITC
Method: (§1) Typically, about 4–8 μM active protein solution and a 10-fold higher ligand concentration were prepared in buffer containing 50 mM HEPES (pH 7.4), 20 mM KCl 10 mM MgCl2 and 1 mM β-ME. The titrations were carried out in triplicate at 28 °C. The data was then analyzed using Origin software (version 7) and fitted to a one-site or a two-site binding model to obtain the binding affinity (Kd), stoichiometry (N) and enthalpy (ΔH) for each complex.

[2] = molecular target: T1, wt AgnB2 (LeuRS) (Agrobacterium radiobacter, UniProt B9JQP8); test: Aminoacylation assay, wt AgnB2; conditions: for Ki: 2 nM enzyme
[3] = system: AgnB2 Triple Q413R; test: Isothermal titration calorimetry, AgnB2 Triple Q413R mutant; format: binding, Agrobacterium radiobacter K84; conditions: ITC
Method: as §1

[4] = molecular target: T2, LeuRS H. pylori (LeuRSHp) (Helicobacter pylori, UniProt P56457); test: Aminoacylation assay, LeuRSHp; format: biochemical; conditions: aminoacylation of agrobacterium tRNALeu, 37 °C, 4 nM enzyme
T2 construct: made in house
Method: (§2) Aminoacylation activities of AgnB2, LeuRSAt and their mutants were measured in 50 mM HEPES buffer (pH 7.4) containing 20 mM KCl, 25 mM MgCl2, 25 mM β-ME, 4 mM ATP, 500 μM [3,4,5-^3H] L-leucine (20 μCi/mmole), 5 μg/ml inorganic pyrophosphatase, 1 μM BSA, 10 μM of active in vitro transcribed tRNA^Leu and enzymes in the range of 2–8 nM. Reactions were pre-incubated with or without substrate and/or inhibitor and then carried out at 28 °C (37 °C-LeuRSHp). Aliquots of the reaction (5–10 μl) were quenched on 3 mM filter pads (Whatman, GE Healthcare) presoaked with 5% trichloroacetic acid (TCA). The pads were washed thrice with 5% TCA and 90% ethanol at 4 °C and then dried. The amount of Leu-tRNA^Leu was then quantified using scintillation counting. Each reaction was performed in triplicate and analyzed using Kaleidagraph (for Km and kcat determinations) or GraphPad Prism software (for IC50 determination).

[5] = system: AgnB2 Triple (T42P/A102N/Q573M); test: Isothermal titration calorimetry, AgnB2 Triple mutant; format: binding, Agrobacterium radiobacter K84; conditions: ITC
Method: as §1

[6] = molecular target: T3, AgnB2 Triple + Q413R mutant (Agrobacterium radiobacter, UniProt B9JQP8, A102N/Q413R/Q573M/T42P); test: Aminoacylation assay, AgnB2 Triple + Q413R mutant; format: biochemical, Agrobacterium radiobacter K84; conditions: fixed ATP concentration (0.675 mM), saturating leucine
T3 sequence (B9JQP8 1-814 T42P/A102N/Q573M/Q413R): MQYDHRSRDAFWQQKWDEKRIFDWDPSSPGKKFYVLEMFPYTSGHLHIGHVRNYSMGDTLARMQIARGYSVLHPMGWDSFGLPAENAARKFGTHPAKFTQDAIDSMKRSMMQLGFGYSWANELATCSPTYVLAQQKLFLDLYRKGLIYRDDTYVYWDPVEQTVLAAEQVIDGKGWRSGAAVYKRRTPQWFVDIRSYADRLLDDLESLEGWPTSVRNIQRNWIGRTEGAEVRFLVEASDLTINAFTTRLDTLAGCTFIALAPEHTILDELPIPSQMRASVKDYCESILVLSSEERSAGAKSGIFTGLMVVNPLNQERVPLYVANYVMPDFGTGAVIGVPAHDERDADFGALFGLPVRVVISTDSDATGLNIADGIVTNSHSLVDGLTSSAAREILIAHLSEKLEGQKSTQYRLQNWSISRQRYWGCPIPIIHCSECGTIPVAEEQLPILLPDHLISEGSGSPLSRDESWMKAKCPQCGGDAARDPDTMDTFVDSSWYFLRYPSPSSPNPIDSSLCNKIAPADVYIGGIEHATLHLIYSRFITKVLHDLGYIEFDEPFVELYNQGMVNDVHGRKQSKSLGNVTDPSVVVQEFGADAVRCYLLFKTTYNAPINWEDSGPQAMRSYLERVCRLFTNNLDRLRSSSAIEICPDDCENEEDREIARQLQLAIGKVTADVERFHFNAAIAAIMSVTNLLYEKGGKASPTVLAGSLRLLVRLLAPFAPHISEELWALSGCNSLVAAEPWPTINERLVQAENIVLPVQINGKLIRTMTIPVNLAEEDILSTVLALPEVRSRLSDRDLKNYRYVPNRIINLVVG
Method: as §2

[7] = molecular target: T1, wt AgnB2 (LeuRS); test: Isothermal titration calorimetry, wt AgnB2; format: binding, Agrobacterium radiobacter K84; conditions: ITC; for Kd: 28 °C
Method: as §1

[8] = system: LeuRSAt (leucyl-tRNA synthetase); test: Aminoacylation assay, wt LeuRSAt; format: biochemical, A. tumefaciens; conditions: 20 nM TM84, 4 nM enzyme, 0.63 mM ATP, 28 °C, pH 7.4
Method: as §2, with “Aminoacylation activities of AgnB2, LeuRSAt and their mutants were measured in 50 mM HEPES buffer (pH 7.4) containing 20 mM KCl, 25 mM MgCl2, 25 mM β-ME, 4 mM ATP, 500 μM [3,4,5-^3H]” left out

[9] = system: LeuRSAt Triad (P45T/N105A/M633Q); test: Aminoacylation assay, LeuRSAt Triad mutant; format: biochemical, A. tumefaciens; conditions: TM84 concentrations as high as 500 nM, 4 nM enzyme, 0.63 mM ATP
[10] = system: agrobacterial IleRS; conditions: cited from earlier work

T2 sequence (P56457 whole entry): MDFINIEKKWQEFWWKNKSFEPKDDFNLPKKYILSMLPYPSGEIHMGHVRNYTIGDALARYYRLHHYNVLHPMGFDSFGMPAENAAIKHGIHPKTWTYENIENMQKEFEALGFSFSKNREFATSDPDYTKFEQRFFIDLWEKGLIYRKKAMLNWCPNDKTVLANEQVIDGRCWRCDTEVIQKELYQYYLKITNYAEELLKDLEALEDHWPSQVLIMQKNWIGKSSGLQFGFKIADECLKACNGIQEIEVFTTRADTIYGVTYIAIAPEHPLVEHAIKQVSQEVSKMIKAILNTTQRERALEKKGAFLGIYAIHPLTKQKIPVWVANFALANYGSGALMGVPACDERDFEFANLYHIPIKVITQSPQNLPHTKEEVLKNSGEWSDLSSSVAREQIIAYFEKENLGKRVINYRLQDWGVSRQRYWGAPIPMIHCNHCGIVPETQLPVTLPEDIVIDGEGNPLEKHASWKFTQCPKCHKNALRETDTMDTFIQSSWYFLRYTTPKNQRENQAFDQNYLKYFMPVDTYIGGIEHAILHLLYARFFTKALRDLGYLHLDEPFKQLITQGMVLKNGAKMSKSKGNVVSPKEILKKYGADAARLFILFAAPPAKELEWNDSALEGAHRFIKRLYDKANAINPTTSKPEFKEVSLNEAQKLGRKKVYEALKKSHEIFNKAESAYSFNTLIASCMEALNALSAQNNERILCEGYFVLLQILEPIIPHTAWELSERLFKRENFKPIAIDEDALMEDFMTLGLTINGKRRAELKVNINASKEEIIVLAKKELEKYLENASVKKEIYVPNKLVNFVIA

CC(C)[C@@H](O)[C@H](O)C(=O)NP(=O)(O)OC[C@@H]1C[C@H](O)[C@H](n2cnc3c(N)ncnc32)O1 [TM84]
decrease in TM84 binding affinity compared with LeuRSAt, enzyme alone ([1]; LeuRSAt Triad alone): 10 fold
decrease in TM84 binding affinity compared with LeuRSAt, enzyme pre-incubated with tRNALeu ([1]; LeuRSAt Triad pre-incubated with tRNALeu): 28 fold
IC50 [2]: 61300 nM
change in aminoacylation activity ([2]; 4 nM enzyme, 0.63 mM ATP, 28 °C, pH 7.4): No change
mode of inhibition with regards to ATP and leucine ([2]; aminoacylation, Lineweaver-Burk): weak competitive inhibitor
Ki ([2]; apparent TM84 Ki, varying leucine, aminoacylation, fixed ATP 1 mM, 28 °C, pH 7.4): 1380 ± 280 nM
Ki ([2]; apparent TM84 inhibition constant (Ki), varying ATP, aminoacylation, fixed leucine, AgnB2·tRNALeu pre-incubated, 28 °C, pH 7.4): 4720 ± 750 nM
binding of TM84 to enzyme·tRNALeu complex tighter than wt AgnB2 ([3]; AgnB2 Triple Q413R·tRNALeu complex): sixfold
binding of TM84 to enzyme alone tighter than wt enzyme ([3]; enzyme alone): 1.3 fold
IC50 [4]: 34 ± 1.14 nM
effect of mutations on TM84 binding, enzyme alone ([5]; AgnB2 Triple alone vs wt AgnB2): no significant effect
increase in binding of TM84 to the AgnB2·tRNALeu complex ([5]; AgnB2 Triple with tRNALeu vs wt AgnB2): 3.5 fold
IC50 [6]: 2900 nM
reduction in AgnB2-binding affinity compared with LeuRSAt ([7]; binary binding, AgnB2 vs LeuRSAt (ref 23)): 6.9 fold
decrease in affinity, AgnB2·tRNA·TM84 compared with LeuRSAt·tRNA·TM84 complex ([7]; ternary complex): ~330 fold
Kd ([7]; ligand binding to AgnB2 alone, pH 7.4): 1050 nM
Kd ([7]; TM84 binding to AgnB2 with pre-bound tRNA, AgnB2 with pre-bound tRNA): 332 nM
activity remaining [8]: 4%
effect on aminoacylation activity [9]: almost no effect
inhibition of agrobacterial IleRS [10]: does not inhibit
